What was measured:
HDAC6 human recombinant = molecular target: T1, HDAC6 human recombinant (Homo sapiens, UniProt Q9UBN7); test: HDAC enzyme activity inhibition (in vitro), HDAC6 assay; assay type: biochemical; conditions: samples at 0.1, 1, 10, 100 and 1000 nM; 37° C. 60 minutes; fluorescence Ex 390, Em 460; read-out: HDAC6 IC50
T1 construct: purchased Calbiochem 382180
T1 sequence (Q9UBN7 1-1215): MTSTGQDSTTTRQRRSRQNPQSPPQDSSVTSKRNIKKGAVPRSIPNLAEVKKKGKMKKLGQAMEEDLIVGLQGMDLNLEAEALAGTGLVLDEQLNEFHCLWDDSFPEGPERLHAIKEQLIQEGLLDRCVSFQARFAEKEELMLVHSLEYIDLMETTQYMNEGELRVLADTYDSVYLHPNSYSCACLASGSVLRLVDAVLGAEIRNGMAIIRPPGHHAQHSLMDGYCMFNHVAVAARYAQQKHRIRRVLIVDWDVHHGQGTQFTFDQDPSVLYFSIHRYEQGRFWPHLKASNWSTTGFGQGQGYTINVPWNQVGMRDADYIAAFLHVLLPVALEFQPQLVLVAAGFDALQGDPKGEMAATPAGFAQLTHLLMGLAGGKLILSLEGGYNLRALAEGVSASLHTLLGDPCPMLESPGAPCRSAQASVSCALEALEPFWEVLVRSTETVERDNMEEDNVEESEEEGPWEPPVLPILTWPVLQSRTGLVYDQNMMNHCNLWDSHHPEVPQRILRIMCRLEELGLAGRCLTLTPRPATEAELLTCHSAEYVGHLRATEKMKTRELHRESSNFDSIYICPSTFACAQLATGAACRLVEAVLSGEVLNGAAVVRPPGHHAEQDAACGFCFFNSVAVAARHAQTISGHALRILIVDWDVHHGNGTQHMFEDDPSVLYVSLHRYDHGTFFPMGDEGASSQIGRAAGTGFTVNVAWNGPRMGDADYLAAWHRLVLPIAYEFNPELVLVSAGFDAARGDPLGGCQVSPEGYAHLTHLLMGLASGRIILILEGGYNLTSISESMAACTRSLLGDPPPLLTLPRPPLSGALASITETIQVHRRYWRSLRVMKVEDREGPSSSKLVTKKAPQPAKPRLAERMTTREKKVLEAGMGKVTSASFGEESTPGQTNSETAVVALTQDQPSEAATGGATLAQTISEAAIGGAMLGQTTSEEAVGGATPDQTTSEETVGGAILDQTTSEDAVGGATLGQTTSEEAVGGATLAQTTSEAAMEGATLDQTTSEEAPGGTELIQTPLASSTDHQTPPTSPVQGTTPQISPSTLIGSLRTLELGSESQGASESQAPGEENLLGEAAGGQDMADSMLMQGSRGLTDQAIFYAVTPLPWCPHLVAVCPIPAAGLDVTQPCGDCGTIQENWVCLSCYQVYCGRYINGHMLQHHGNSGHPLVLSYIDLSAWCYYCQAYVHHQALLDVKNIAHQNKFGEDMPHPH
How it was run: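 Fluorescence (Ex 390, Em 460) read after a 37° C, 60 min enzyme reaction and a further 30 min developer step at 37° C. Uses recombinant human HDAC6; HDAC1 arm dosed at 100, 1000, 10000 nM.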

HDAC1 = molecular target: T2, HDAC1 (Homo sapiens, UniProt Q13547); test: HDAC enzyme activity inhibition (in vitro), HDAC1 Fluorimetric Drug Discovery Assay Kit; assay type: biochemical; conditions: samples at 100, 1000 and 10000 nM; 37° C. 60 minutes; fluorescence Ex 390, Em 460; read-out: HDAC1 IC50
T2 construct: purchased Enzolifesciences BML-AK511
T2 sequence (Q13547 whole entry): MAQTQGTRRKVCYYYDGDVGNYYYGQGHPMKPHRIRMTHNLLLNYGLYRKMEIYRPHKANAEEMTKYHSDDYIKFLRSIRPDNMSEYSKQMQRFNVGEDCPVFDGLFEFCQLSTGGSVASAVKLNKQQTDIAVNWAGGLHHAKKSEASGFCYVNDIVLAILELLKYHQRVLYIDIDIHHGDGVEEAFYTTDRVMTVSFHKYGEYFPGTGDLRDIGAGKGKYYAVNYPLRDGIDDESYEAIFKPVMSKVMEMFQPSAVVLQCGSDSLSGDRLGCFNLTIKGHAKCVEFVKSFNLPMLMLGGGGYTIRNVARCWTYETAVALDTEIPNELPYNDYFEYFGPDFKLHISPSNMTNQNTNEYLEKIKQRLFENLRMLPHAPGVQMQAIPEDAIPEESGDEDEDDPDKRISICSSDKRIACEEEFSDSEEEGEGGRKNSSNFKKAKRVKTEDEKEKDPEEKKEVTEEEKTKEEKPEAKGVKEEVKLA
How it was run: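 Fluorimetric read-out (Ex 390, Em 460) after a 60 min 37° C enzyme reaction and 30 min 37° C developer step. Tested levels: 0.1-1000 nM (0.1, 1, 10, 100, 1000) on recombinant human HDAC6; 100, 1000 and 10000 nM on HDAC1 kit enzyme.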

CN1CCC(n2c(=O)n(Cc3ccc(-c4nnc(C(F)F)o4)cc3F)c3cc(-c4cccnc4)ccc32)CC1 [Compound 125, 3-(4-(5-(difluoromethyl)-1,3,4-oxadiazole-2-yl)-2-fluorobenzyl)-1-(1-methylpiperidine-4-yl)-5-(pyridine-3-yl)-1,3-dihydro-2H-benzo[d]imidazole-2-one]
IC50 (HDAC6 human recombinant): 602 nM | IC50 (HDAC1): > 10000 nM

O=c1oc2ccccc2n1Cc1ccc(-c2nnc(C(F)F)o2)cc1F [Compound 245, 3-(4-(5-(difluoromethyl)-1,3,4-oxadiazole-2-yl)-2-fluorobenzyl)benzo[d]oxazole-2(3H)-one]
IC50 (HDAC6 human recombinant): 684 nM | IC50 (HDAC1): > 10000 nM

CC(=O)N1CCC(n2c(=O)n(Cc3ccc(-c4nnc(C(F)F)o4)cc3F)c3ccc(Cl)cc32)CC1 [Compound 182, 3-(1-acetylpiperidine-4-yl)-5-chloro-1-(4-(5-(difluoromethyl)-1,3,4-oxadiazole-2-yl)-2-fluorobenzyl)-1,3-dihydro-2H-benzo[d]imidazole-2-one]
IC50 (HDAC6 human recombinant): 118 nM | IC50 (HDAC1): > 10000 nM

Cc1cc2cc(-c3cc4c(cc3F)n(Cc3ccc(-c5nnc(C(F)F)o5)cn3)c(=O)n4C3CCN(C)CC3)ccc2n1C(=O)OC(C)(C)C [Compound 252, tert-butyl 5-(1-((5-(5-(difluoromethyl)-1,3,4-oxadiazole-2-yl)pyridine-2-yl)methyl)-6-fluoro-3-(1-methylpiperidine-4-yl)-2-oxo-2,3-dihydro-1H-benzo[d]imidazole-5-yl)-2-methyl-1H-indole-1-carboxylate]
IC50 (HDAC6 human recombinant): 207 nM | IC50 (HDAC1): > 10000 nM

Cn1c(=O)n(Cc2ccc(-c3nnc(C(F)F)o3)cc2F)c2cc(-c3cccnc3)ccc21 [Compound 110, 3-(4-(5-(difluoromethyl)-1,3,4-oxadiazole-2-yl)-2-fluorobenzyl)-1-methyl-5-(pyridine-3-yl)-1,3-dihydro-2H-benzo[d]imidazole-2-one]
IC50 (HDAC6 human recombinant): 234 nM | IC50 (HDAC1): > 10000 nM

CCN1CCC(n2c(=O)n(Cc3ccc(-c4nnc(C(F)F)o4)cc3F)c3ccccc32)CC1 [Compound 14, 1-(4-(5-(difluoromethyl)-1,3,4-oxadiazole-2-yl)-2-fluorobenzyl)-3-(1-ethylpiperidine-4-yl)-1,3-dihydro-2H-benzo[d]imidazole-2-one]
IC50 (HDAC6 human recombinant): 209 nM | IC50 (HDAC1): > 10000 nM

O=c1n(Cc2ccc(-c3nnc(C(F)F)o3)cc2F)c2ncccc2n1C1CCN(C2COC2)CC1 [Compound 104, 3-(4-(5-(difluoromethyl)-1,3,4-oxadiazole-2-yl)-2-fluorobenzyl)-1-(1-(oxetan-3-yl)piperidine-4-yl)-1,3-dihydro-2H-imidazo[4,5-b]pyridine-2-one]
IC50 (HDAC6 human recombinant): 283 nM | IC50 (HDAC1): > 10000 nM

Cn1c(=O)n(Cc2ccc(-c3nnc(C(F)F)o3)cn2)c2ccc(-c3ccncc3)cc21 [Compound 209, 1-((5-(5-(difluoromethyl)-1,3,4-oxadiazole-2-yl)pyridine-2-yl)methyl)-3-methyl-5-(pyridine-4-yl)-1,3-dihydro-2H-benzo[d]imidazole-2-one]
IC50 (HDAC6 human recombinant): 17 nM | IC50 (HDAC1): > 10000 nM

COC(=O)N1CCC(n2c(=O)n(Cc3ccc(-c4nnc(C(F)F)o4)cn3)c3cc(F)ccc32)CC1 [Compound 68, Methyl 4-(3-((5-(5-(difluoromethyl)-1,3,4-oxadiazole-2-yl)pyridine-2-yl)methyl)-5-fluoro-2-oxo-2,3-dihydro-1H-benzo[d]imidazole-1-yl)piperidine-1-carboxylate]
IC50 (HDAC6 human recombinant): 34 nM | IC50 (HDAC1): > 10000 nM

O=c1n(Cc2ccc(-c3nnc(C(F)F)o3)cc2F)c2cc(F)ccc2n1C1CCN(C2CCC2)CC1 [Compound 74, 1-(1-cyclobutylpiperidine-4-yl)-3-(4-(5-(difluoromethyl)-1,3,4-oxadiazole-2-yl)-2-fluorobenzyl)-5-fluoro-1,3-dihydro-2H-benzo[d]imidazole-2-one]
IC50 (HDAC6 human recombinant): 70 nM | IC50 (HDAC1): > 10000 nM

O=c1n(Cc2ccc(-c3nnc(C(F)F)o3)cn2)c2cc(F)c(-c3cccc4[nH]ccc34)cc2n1[C@@H]1CCN(C2COC2)C1 [Compound 288, (R)-1-((5-(5-(difluoromethyl)-1,3,4-oxadiazole-2-yl)pyridine-2-yl)methyl)-6-fluoro-5-(1H-indole-4-yl)-3-(1-(oxetan-3-yl)pyrrolidine-3-yl)-1,3-dihydro-2H-benzo[d]imidazole-2-one]
IC50 (HDAC6 human recombinant): 10 nM | IC50 (HDAC1): > 10000 nM

CN1CCC(n2c(=O)n(Cc3ccc(-c4nnc(C(F)F)o4)cc3F)c3ccc(C4CCN(C(=O)CO)CC4)cc32)CC1 [Compound 179, 1-(4-(5-(difluoromethyl)-1,3,4-oxadiazole-2-yl)-2-fluorobenzyl)-5-(1-(2-hydroxyacetyl)piperidine-4-yl)-3-(1-methylpiperidine-4-yl)-1,3-dihydro-2H-benzo[d]imidazole-2-one]
IC50 (HDAC6 human recombinant): 145 nM | IC50 (HDAC1): > 10000 nM

CN1CC[C@@H](n2c(=O)n(Cc3ccc(-c4nnc(C(F)F)o4)cn3)c3cc(F)c(-c4ccncc4)cc32)C1 [Compound 272, (R)-1-((5-(5-(difluoromethyl)-1,3,4-oxadiazole-2-yl)pyridine-2-yl)methyl)-6-fluoro-3-(1-methylpyrrolidine-3-yl)-5-(pyridine-4-yl)-1,3-dihydro-2H-benzo[d]imidazole-2-one]
IC50 (HDAC6 human recombinant): 29 nM | IC50 (HDAC1): > 10000 nM

O=c1n(Cc2ccc(-c3nnc(C(F)F)o3)cn2)c2cc(F)c(F)cc2n1C1CCN(C2COC2)CC1 [Compound 84, 1-((5-(5-(difluoromethyl)-1,3,4-oxadiazole-2-yl)pyridine-2-yl)methyl)-5,6-difluoro-3-(1-(oxetan-3-yl)piperidine-4-yl)-1,3-dihydro-2H-benzo[d]imidazole-2-one]
IC50 (HDAC6 human recombinant): 36 nM | IC50 (HDAC1): > 10000 nM

O=c1n(Cc2ccc(-c3nnc(C(F)F)o3)cn2)c2cc(F)c(-c3cccc4[nH]ccc34)cc2n1C1CCN(CC(F)(F)F)CC1 [Compound 239, 1-((5-(5-(difluoromethyl)-1,3,4-oxadiazole-2-yl)pyridine-2-yl)methyl)-6-fluoro-5-(1H-indole-4-yl)-3-(1-(2,2,2-trifluoroethyl)piperidine-4-yl)-1,3-dihydro-2H-benzo[d]imidazole-2-one]
IC50 (HDAC6 human recombinant): 51 nM | IC50 (HDAC1): > 10000 nM

CC(C)N1CCC(c2cc3oc(=O)n(Cc4ccc(-c5nnc(C(F)F)o5)cn4)c3cc2F)CC1 [Compound 335, 3-((5-(5-(difluoromethyl)-1,3,4-oxadiazole-2-yl)pyridine-2-yl)methyl)-5-fluoro-6-(1-isopropylpiperidine-4-yl)benzo[d]oxazole-2(3H)-one]
IC50 (HDAC6 human recombinant): 75 nM | IC50 (HDAC1): > 10000 nM

O=c1n(Cc2ccc(-c3nnc(C(F)F)o3)cn2)c2cc(F)ccc2n1C1CCN(C2CCC3(CC2)OCCO3)CC1 [Compound 58, 1-(1-(1,4-dioxaspiro[4.5]decane-8-yl)piperidine-4-yl)-3-((5-(5-(difluoromethyl)-1,3,4-oxadiazole-2-yl)pyridine-2-yl)methyl)-5-fluoro-1,3-dihydro-2H-benzo[d]imidazole-2-one]
IC50 (HDAC6 human recombinant): 28 nM | IC50 (HDAC1): > 10000 nM

O=c1n(Cc2ccc(-c3nnc(C(F)F)o3)cc2F)c2cc(F)c(F)cc2n1C1CCN(C2COC2)CC1 [Compound 94, 1-(4-(5-(difluoromethyl)-1,3,4-oxadiazole-2-yl)-2-fluorobenzyl)-5,6-difluoro-3-(1-(oxetan-3-yl)piperidine-4-yl)-1,3-dihydro-2H-benzo[d]imidazole-2-one]
IC50 (HDAC6 human recombinant): 45 nM | IC50 (HDAC1): > 10000 nM

O=c1n(Cc2ccc(-c3nnc(C(F)F)o3)cn2)c2cc(F)c(-c3cccc4[nH]ccc34)cc2n1C1CCN(CC(F)(F)C(F)F)CC1 [Compound 241, 1-((5-(5-(difluoromethyl)-1,3,4-oxadiazole-2-yl)pyridine-2-yl)methyl)-6-fluoro-5-(1H-indole-4-yl)-3-(1-(2,2,3,3-tetrafluoropropyl)piperidine-4-yl)-1,3-dihydro-2H-benzo[d]imidazole-2-one]
IC50 (HDAC6 human recombinant): 94 nM | IC50 (HDAC1): > 10000 nM
